In assay [1] the test system is JY-8 cells (expressing LFA-1) adhering to immobilized ICAM-1. In words: ICAM-1/JY-8 Cell Adhesion Assay (46B). The following applies: JY-8 cell adhesion to ICAM-1; for inhibition at 4 µM / inhibition at 2 µM / inhibition at 1 µM: Homo sapiens; for inhibition at 4 µM: @ 4 μM compound; for inhibition at 2 µM / % inhibition: @ 2 μM compound (cell); for inhibition at 1 µM: @ 1 μM compound (cell). Format: cell-based, human. The procedure:
Biologically relevant activity of the compounds in this invention was confirmed using a cell-based adhesion assay, (described below as assay 46B) which measured the ability of the present compounds to block the adherence of JY-8 cells (a human EBV-transformed B cell line expressing LFA-1 on its surface) to immobilized ICAM-1.
46B. ICAM-1 /JY-8 Cell Adhesion Assay
For measurement of inhibitory activity in the cell-based adhesion assay, 96-well microtiter plates are coated with 70 μL of recombinant ICAM-1/g (ICOS Corporation) at a concentration of 5 μg/mL in D-PBS w/o Ca^++ or Mg^++ overnight at 4° C. The wells are then washed twice with D-PBS and blocked by addition of 200 μL of D-PBS, 5% fish skin gelatin by incubation for 1 hour at room temperature. Fluorescent tagged JY-8 cells (a human EBV-transformed B cell line expressing LFA-1 on its surface; 50 μL at 2×10^6 cells/ml in RPMI 1640 (standard cell culture medium)/1% fetal bovine serum) are added to the wells. For fluorescent labeling of JY-8 cells, 5×10^6 cells washed once in RPMI 1640 are resuspended in 1 mL of RPMI 1640 containing 2 μM Calceiun AM (MolecularProbes), are incubated at 37° C for 30 minutes and washed once with RPMI-1640/1% fetal bovine serum. Dilutions of compounds to be assayed for ICAM-1/LFA-1 antagonistic activity are prepared in RPMI-1640/1% fetal bovine serum from 10 mM stock solutions in DMSO and 50 μL are added to duplicate wells. Microtiter plates are incubated for 45 minutes at room temperature and the wells are washed gently once with RPMI-1640/1% fetal bovine serum. Fluorescent intensity is measured in a fluorescent plate reader with an excitation wavelength at 485 nm and an emission wavelength at 530 nm. The percent inhibition of a candidate compound at a given concentration is calculated using the following equation: [formula]
and these concentration/inhibition data are used to generate dose response curves, from which IC50 values are derived.

The target of assay [2] is T1, ICAM-1/LFA-1 interaction (recombinant LFA-1, biotinylated recombinant ICAM-1/Ig) (Homo sapiens, UniProt P20701).
T1 construct: Recombinant LFA-1 (100 mL of 0.7 mg/ml, ICOS Corporation) in D-PBS is then added to each well
In words: ICAM-1/LFA-1 Biochemical Interaction Assay (46A). The conditions noted are these: for inhibition at 2 µM: read-out: % inhibition. Format: binding. As to the method: Compounds that antagonize the interaction between ICAM-1 and LFA-1 can be identified, and their activities quantitated, using both biochemical and cell-based adhesion assays. A primary biochemical assay, described below as assay 46A, was utilized to measure the ability of the present compounds to block the interaction between the integrin LFA-1 and its adhesion partner ICAM-1.
46A. ICAM-1/LFA-1 Biochemical Interaction Assay
In the biochemical assay, 100 mL of anti-LFA-1 antibody (ICOS Corporation) at a concentration of 5 mg/ml in Dulbecco's phosphate-buffered saline (D-PBS) is used to coat wells of a 96-well microtiter plate overnight at 4° C. The wells are then washed twice with wash buffer (D-PBS w/o Ca^++ or Mg^++, 0.05% Tween 20) and blocked by addition of 200 mL of D-PBS, 5% fish skin gelatin. Recombinant LFA-1 (100 mL of 0.7 mg/ml, ICOS Corporation) in D-PBS is then added to each well. Incubation continues for 1 hour at room temperature and the wells are washed twice with wash buffer. Serial dilutions of compounds being assayed as ICAM-1/LFA-1 antagonists, prepared as 10 mM stock solutions in dimethyl sulfoxide (DMSO), are diluted in D-PBS, 2 mM MgCl2, 1% fish skin gelatin and 50 mL of each dilution added to duplicate wells. This is followed by addition of […] of 0.8 mg/ml biotinylated recombinant ICAM-1/Ig (ICOS Corporation) to the wells and the plates are incubated at room temperature for 1 hour The wells are then washed twice with wash buffer and 100 mL of Europium-labeled Streptavidin (Wallac Oy) diluted 1:100 in Delfia assay buffer (Wallac Oy) are added to the wells. Incubation proceeds for 1 hour at room temperature. […] Incubation proceeds for 5 minutes with constant mixing.
where “background” refers to wells that are not coated with anti-LFA-1 antibody.

Experimental findings from US6521619B2, “Aryl phenylcyclopropyl sulfide derivatives and their use as cell adhesion inhibiting anti-inflammatory and immune suppressive agents” (Icos Corporation, priority 2000, dated 2003) are described below.

T1 sequence (P20701 26-1170): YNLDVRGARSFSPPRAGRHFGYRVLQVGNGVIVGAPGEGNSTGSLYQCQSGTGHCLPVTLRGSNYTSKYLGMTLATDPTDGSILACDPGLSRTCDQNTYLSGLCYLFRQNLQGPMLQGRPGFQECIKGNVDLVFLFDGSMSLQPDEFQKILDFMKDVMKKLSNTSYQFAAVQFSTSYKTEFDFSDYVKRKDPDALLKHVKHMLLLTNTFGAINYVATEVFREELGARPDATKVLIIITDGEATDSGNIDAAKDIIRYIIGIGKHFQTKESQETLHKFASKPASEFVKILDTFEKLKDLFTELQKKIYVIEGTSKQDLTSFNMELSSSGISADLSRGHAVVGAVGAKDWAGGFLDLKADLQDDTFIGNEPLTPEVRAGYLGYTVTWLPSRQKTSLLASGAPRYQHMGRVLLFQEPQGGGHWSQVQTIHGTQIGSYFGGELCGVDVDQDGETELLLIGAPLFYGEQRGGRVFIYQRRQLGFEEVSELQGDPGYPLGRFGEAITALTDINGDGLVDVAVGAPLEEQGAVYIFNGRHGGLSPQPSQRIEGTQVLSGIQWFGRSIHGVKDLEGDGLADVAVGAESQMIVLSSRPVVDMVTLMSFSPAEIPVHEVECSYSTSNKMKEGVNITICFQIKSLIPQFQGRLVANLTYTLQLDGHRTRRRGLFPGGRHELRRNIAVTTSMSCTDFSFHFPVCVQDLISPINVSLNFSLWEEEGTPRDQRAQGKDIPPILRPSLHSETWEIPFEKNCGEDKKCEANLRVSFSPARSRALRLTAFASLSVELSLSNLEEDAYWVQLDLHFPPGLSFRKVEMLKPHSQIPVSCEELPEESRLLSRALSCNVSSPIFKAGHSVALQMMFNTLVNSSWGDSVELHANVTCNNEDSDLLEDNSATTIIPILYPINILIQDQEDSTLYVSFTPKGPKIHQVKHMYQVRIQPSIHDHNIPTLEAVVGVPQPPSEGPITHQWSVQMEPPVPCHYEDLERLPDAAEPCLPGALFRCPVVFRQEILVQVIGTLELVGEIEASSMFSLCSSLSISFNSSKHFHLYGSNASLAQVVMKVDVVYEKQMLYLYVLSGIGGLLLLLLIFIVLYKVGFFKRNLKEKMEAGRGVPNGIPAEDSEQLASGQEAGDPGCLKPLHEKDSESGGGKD
T1 sequence (P05107 23-769 partner): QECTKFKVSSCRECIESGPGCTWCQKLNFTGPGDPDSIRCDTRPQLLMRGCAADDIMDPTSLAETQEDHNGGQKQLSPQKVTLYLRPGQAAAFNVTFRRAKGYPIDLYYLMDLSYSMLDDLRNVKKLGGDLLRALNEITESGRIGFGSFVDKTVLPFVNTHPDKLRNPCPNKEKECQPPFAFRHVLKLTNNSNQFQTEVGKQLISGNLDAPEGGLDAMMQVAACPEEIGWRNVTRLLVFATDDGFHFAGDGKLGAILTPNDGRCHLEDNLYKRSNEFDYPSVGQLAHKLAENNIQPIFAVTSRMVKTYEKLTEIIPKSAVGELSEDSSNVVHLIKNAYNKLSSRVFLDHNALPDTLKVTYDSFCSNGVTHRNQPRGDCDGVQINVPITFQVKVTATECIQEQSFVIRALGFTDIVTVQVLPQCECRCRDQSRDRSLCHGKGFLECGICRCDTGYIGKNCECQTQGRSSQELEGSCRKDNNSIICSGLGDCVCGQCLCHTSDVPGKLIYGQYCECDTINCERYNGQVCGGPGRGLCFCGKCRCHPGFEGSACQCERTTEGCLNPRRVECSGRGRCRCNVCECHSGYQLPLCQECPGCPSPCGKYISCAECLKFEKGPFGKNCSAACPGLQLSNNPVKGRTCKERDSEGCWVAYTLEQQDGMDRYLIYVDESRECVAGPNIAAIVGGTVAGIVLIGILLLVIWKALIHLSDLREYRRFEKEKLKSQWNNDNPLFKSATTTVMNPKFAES

Take `O=C(NCCCN1CCCC1=O)C1CC1c1ccc(Sc2ccccc2N2CCOCC2)c(Cl)c1` (racemic) [Example 8, (±)-(2-Morpholin-1-ylphenyl)[2-chloro-4-(trans-(2-((3-(1-pyrrolidin-2-onyl)-prop-1-ylamino)carbonyl)cycloprop-1-yl)phenyl]sulfide]: the figures for the inhibition at 4 µM in assay [1] and in assay [2] (@ 4 μM compound) were 70% and 94%, respectively. Further, the inhibition at 2 µM in assay [2] (@ 2 μM compound) stood at 94%.
For `CC(C)c1ccccc1Sc1ccc(C2CC2C(=O)NCCC(=O)O)c(Cl)c1Cl` (racemic) [Example 16, (±)-(2-Isopropylphenyl)[2,3-dichloro-4-(trans-(2-(2-carboxyethylamino)carbonyl)cycloprop-1-yl)phenyl]sulfide], the values for the inhibition at 2 µM in assay [1] and in assay [2] (@ 2 μM compound) were 88% and 96%, respectively.
For “(±)-(2-Piperidin-1-ylphenyl)[2-trifluoromethyl-4-(trans-(2-((3-(1-pyrrolidin-2-onyl)-prop-1-ylamino)carbonyl)cycloprop1-yl)phenyl]sulfide [Example 9]”, the “% inhibition” value in assay [1] amounted to 89% @ 2 μM; in assay [2] (@ 2 μM compound), 97% @ 2 μM.
As to `O=C(NCCCN1CCCC1=O)C1CC1c1ccc(Sc2ccccc2N2CCCCC2)c(C(F)(F)F)c1` (racemic) [Example 9, (±)-(2-Piperidin-1-ylphenyl)[2-trifluoromethyl-4-(trans-(2-((3-(1-pyrrolidin-2-onyl)-prop-1-ylamino)carbonyl)cycloprop1-yl)phenyl]sulfide], the values for the inhibition at 4 µM in assay [1] and in assay [2] (@ 4 μM compound) were 76% and 95%, respectively.
Regarding `CC(=O)N1CCN(C(=O)C2CC2c2ccc(Sc3ccccc3C(C)C)c(Cl)c2Cl)CC1` (racemic) [Example 21, (±)-(2-Isopropylphenyl)[2,3-dichloro-4-(trans-(2-(4-acetylpiperazin-1-yl)carbonyl)cycloprop-1-yl)phenyl]sulfide], the inhibition at 2 µM worked out at 88% in assay [1] and 94% in assay [2] (@ 2 μM compound).
With `O=C(NCCCN1CCCC1=O)C1CC1c1ccc(Sc2ccccc2Br)c(Cl)c1Cl` (racemic) [Example 14, (±)-(2-Bromophenyl)[2,3-dichloro-4-(trans-(2-((3-(1-pyrrolidin-2-onyl)-prop-1-ylamino)carbonyl)cycloprop-1-yl)phenyl]sulfide], 1 µM produced 80% inhibition in assay [1]. Further, in assay [2] (@ 4 μM compound), the inhibition at 4 µM is 92%.
Taken in the same sequence, the figures for `CN(CCCN1CCCC1=O)C(=O)C1CC1c1ccc(Sc2ccccc2N2CCOCC2)c(C(F)(F)F)c1` (racemic) [Example 13, (±)-(2-Morpholin-1-ylphenyl)[2-trifluoromethyl-2-(trans-(2-((3-(1-pyrrolidin-2-onyl)-propyl-N-methylamino)carbonyl)cycloprop-1-yl)phenyl]sulfide] were 86% and 93%.
Turning to “(±)-(3-Morpholin-1-ylphenyl)[2-trifluoromethyl-4-(trans-(2-((3-(1-pyrrolidin-2-onyl)-prop-1-ylamino)carbonyl)cycloprop-1-yl)phenyl]sulfide [Example 11]”, the “% inhibition” value was found to be 86% @ 2 μM in assay [1] and 96% @ 4 μM in assay [2] (@ 4 μM compound).
Turning to `CC(C)c1ccccc1Sc1ccc(C2CC2C(=O)N2CCC(C(=O)O)CC2)c(Cl)c1Cl` (racemic) [Example 18, (±)-(2-Isopropylphenyl)[2,3-dichloro-4-(trans-(2-(4-carboxypiperidin-1-yl)carbonyl)cycloprop-1-yl)phenyl]sulfide], the inhibition at 2 µM in assay [1] came to 84%; in assay [2] (@ 2 μM compound), 93%.

As usually defined, the inhibition is how much of the control response was suppressed.
